{
  "source": "patent EP1379634B1",
  "about": "(THE UNIVERSITY OF GEORGIA RESEARCH FOUNDATION, INC., priority 2001, dated 2002)",
  "key": {"[1]": {"tested_on": "Taenia crassiceps cysts", "experiment": "Scanning electron microscopy of cyst surfaces removed from treated mice", "format": "in vivo", "details": "cysts removed from treated BALB/c mice", "from_the_text": "• Figure 1. Free energy diagrams for various profiles and scenarios of enzyme catalysis; from Murphy, 1995. Biochemistry. 34(14):4507-4510: (a) Free energy diagrams for different concentrations of substrate S in catalyzed and in uncatalyzed reactions. Left panel: Profile I. S<Km such that enzyme is in a \"loose\" binding configuration with substrate. Right panel: Profile II. S>Km such that the enzyme is in a \"tight\" binding configuration with the substrate. Nomenclature below the figure indicates derivation of various free energy constants which are referred to in the text. […] In this scenario, the transition state is decreased from TSC1 to TSC2 resulting in a net increase of ΔGB from situation 1 to situation 2. […] Since ΔGES is unchanged in this plot, 100% of the additional binding energy is utilized for catalysis. This property and the increase in ΔAGb is the definition of a catalytic event driven by transition state stabilization, with the latter being the defining catalytic parameter; (c) free energy diagram for catalysis driven by ground state destabilization for a Profile II scenario where ES is decreased and TSC is not changed. From the left panel to the right panel, ES is decreased, whereas TS remains unchanged. Consequently, ΔΔGb remains constant although catalysis is noted (thus the free energy of enzyme/transition state binding is unchanged). […]"}, "[2]": {"biological_target": "Cathepsin B (Homo sapiens, UniProt P07858)", "experiment": "Selectivity test (Steps VI and IX), Cathepsin B", "format": "biochemical", "details": "vehicle 4 X 10^-5 M; pH 6.1, substrate Z-ARR-AFC; 40 µM", "procedure": "In order to perform the assay, the vehicle (for Step VI) or inhibitor (for Step IX) were incubated with the appropriate substrate in the correct assay buffer and allowed to equilibrate. Subsequently, the protease was added, and the assay was allowed to incubate for an appropriate time. The concentrations used in this experiment were as follows: Vehicle was set up at 4 X 10^-5 M in final assay buffer; Inhibitor was set up at 3 X 10^-10 M in the final assay buffer. Preferably the dosages employed should be the minimal amount of vehicle or inhibitor necessary to induce inhibition. […] Substrates were set up based upon the preferred substrate for cleavage of the particular enzyme.\nPositive controls were set up similarly as described for test controls, except that a solvent blank was added in substitution for the inhibitor or vehicle (in a volume equal to the volume of inhibitor or vehicle addition). All of the inhibitors and vehicles could be dissolved in dimethylsulfoxide (DMSO), and therefore, this was the solvent of choice. Negative controls were set up by adding the inhibitor or vehicle and the preferred substrates in a tube without the protease. […]\nPercent inhibition was calculated as: %Inhibition = ((AFC positive for \"SI\"−AFC negative for \"SI\")−(AFC test−AFC negative for \"SI\"))/(AFC positive for \"SI\"−AFC negative for \"SI\") × 100 [formula] […]"}},
  "note": "Residues, ends and D or L forms follow the SMILES beside them. *: point of attachment. Cbz = O=C(OCc1ccccc1)*; CH2F = FC*",
  "data": [
    {"compound": "CC(C)C[C@H](NC(=O)OCc1ccccc1)C(=O)N[C@@H](CC(C)C)C(=O)N[C@@H](Cc1ccc(O)cc1)C(=O)CF", "note": "[Z-LLY-FMK, Z-Leu-Leu-Tyr-FMK] (Cbz-Leu-Leu-Tyr-CH2F)", "values": [
      {"measurement": "Immune cells observed by SEM on cyst surfaces", "setting": "[1]", "value": "presence of adherent immune cells"}
    ]},
    {"compound": "Mu-Leu-Tyr-AFC [Mu-LY-AFC]", "values": [
      {"measurement": "% inhibition", "setting": "[2]", "value": 0, "unit": "%"}
    ]}
  ]
}
